Laboratory results as given in patent US20120077863A1, “GUANIDINO-SUBSTITUTED BI-AND POLYPHENYLS AS SMALL MOLECULE CARRIERS” (UCL Business PLC, priority 2009, published 2012).

Target: GAPD siRNA
Test: Isothermal calorimetry (ITC) binding of SMOC to siRNA
Details: 6G-SMOC 250 μM in syringe, siRNA 3.5 μM in cell, FIG. 2
Experimental: An isothermal calorimetry experiment (ITC) was carried out to analyse the strength of the binding between the 6G-SMOG compound shown below and siRNA targeted to the […].
6G-SMOC at a concentration of 250 μM was loaded into the syringe of a Microcal VP-ITC calorimeter (450 μl), and the cell (1.8 ml) filled with GAPD siRNA (Dharmacon RNAi Technologies) at a concentration of 3.5 μM. A total of 37 injections of 8 μl each were made at 4 minute intervals to ensure total saturation of the siRNA. The binding curve was plotted using Origin 6.0 (Microcal) and the binding constants calculated.

Structure (SMILES): N=C(N)NCCOc1cccc(-c2ccc(-c3cccc(OCCNC(=N)N)c3OCCNC(=N)N)c(OCCNC(=N)N)c2OCCNC(=N)N)c1OCCNC(=N)N [6G-SMOC]
- Kd: ~80 µM
